In patent publication US11814376B2, “Hepatitis b core protein modulators” (Assembly Biosciences, Inc., priority 2015, dated 2023):
Read-outs that look alike come from different tables or passages of the source.

Legend:
[1] = test system: HBV viral load in AD38 cells; assay: Viral load production in AD38 cells, quantitative PCR of the core sequence in supernatant; type: cell-based; details: for activity at 10 µM: Hepatitis B virus, 144 h, read-out: AD38 Viral Load (%) (VL with cmpd/VL in DMSO control) at 10 μM
[2] = test system: AD38 cells; assay: Viability of AD38 cells (Promega CellTiter-Glo); type: cell-based; details: 10 μM compound, 6 days, CellTiter-Glo luminescence normalized to DMSO control (100%)
Outline: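 AD38 cells were seeded at 50,000/well on collagen-coated plates and treated with compound added as a 10× solution in 10% DMSO for 6 days at 37° C. Viability was measured by CellTiter-Glo luminescence in tetracycline-free medium with 2% FBS and 1% DMSO, and expressed as percent of DMSO control.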

[3] = 10 μM compound, 6 days at 37° C., supernatant qPCR, relative to DMSO control

Row | Structure (SMILES) | activity at 10 µM [1, 3] [%] | AD38 Viability Normalized Result (cmpd/DMSO %) at 10 μM [2] [%] | AD38 Viral Load (%) (VL with cmpd/VL in DMSO control) at 10 μM [1, 3] | activity at 10 µM [1] [%]
1 | CN(C)CCCCOc1ccc(-c2ncc(CNC(=O)c3ccc4c(c3)NC(=O)c3ccccc3S4(=O)=O)s2)cc1 [compound 11001] | 1.7 | 77 | – | –
2 | Cl.O=C(NCc1cnc(-c2ccc(OC[C@H]3CCCN3)cc2)s1)c1ccc2c(c1)NC(=O)c1ccccc1S2(=O)=O [compound 11104, (R)-11-oxo-N-((2-(4-(pyrrolidin-2-ylmethoxy)phenyl)thiazol-5-yl)methyl)-10, 11-dihydrodibenzo [b, f] [1, 4] thiazepine-8-carboxamide 5,5-dioxide hydrochloride] | 9.4 | 97 | – | –
3 | CN(C)CCOc1ccc(-c2ncc(CNC(=O)c3ccc4c(c3)NC(=O)c3ccccc3S4)s2)cc1 [compound 1608] | 12.4 | 98 | – | –
4 | Cc1nc(C)c(CNC(=O)c2ccc3c(c2)NC(=O)c2ccccc2S3(=O)=O)s1 [compound 1763] | 12.9 | 93 | – | –
5 | CC(C)(C)OC(=O)N1CC(COc2ccc(-c3ncc(CNC(=O)c4ccc5c(c4)NC(=O)c4ccccc4S5(=O)=O)s3)cc2)C1 [1995-A, tert-butyl 3-((4-(5-((5,5-dioxido-11-oxo-10, 11-dihydrodibenzo [b, f] [1, 4]thiazepine-8-carboxamido)methyl)thiazol-2-yl)phenoxy)methyl) azetidine-1-carboxylate] | – | 107 | 2.4 | –
6 | COc1ccc(-c2ncc(CNC(=O)c3ccc4c(c3)NC(=O)c3ccccc3S4)s2)cc1 [compound 1606] | 3 | 91 | – | –
7 | O=C(NCc1cnc(-c2ccc(S(=O)(=O)CCCO)cc2)s1)c1ccc2c(c1)NC(=O)c1ccccc1S2(=O)=O [11063-B, N-((2-(4-((3-hydroxypropyl)sulfonyl)phenyl)thiazol-5-yl)methyl)-11-oxo-10, 11-dihydrodibenzo [b, f] [1, 4] thiazepine-8-carboxamide 5,5-dioxide] | 5.4 | 95 | – | –
8 | O=C(NCc1cnc(-c2ccc(O)cc2Cl)s1)c1ccc2c(c1)NC(=O)c1ccccc1S2(=O)=O [compound 1668] | 23.4 | 106 | – | –
9 | O=C(O)c1ccc(-c2ncc(CNC(=O)c3ccc4c(c3)NC(=O)c3ccccc3O4)s2)cc1 [compound 1612, 4-(5-((11-oxo-10, 11-dihydrodibenzo [b, f] [1, 4]oxazepine-8-carboxamido)methyl)thiazol-2-yl) benzoic acid] | 6.9 | 105 | – | –
10 | NCCC#Cc1ccc(-c2ncc(CNC(=O)c3ccc4c(c3)NC(=O)c3ccccc3S4(=O)=O)s2)cc1 [compound 11002, N-((2-(4-(4-aminobut-1-yn-1-yl)phenyl)thiazol-5-yl)methyl)-11-oxo-10, 11-dihydrodibenzo [b, f] [1, 4] thiazepine-8-carboxamide 5,5-dioxide] | 0.9 | 90 | – | –
11 | N#Cc1ccc(-c2ncc(CNC(=O)c3ccc4c(c3)NC(=O)c3ccccc3O4)s2)c(F)c1 [compound 1826] | 11.8 | 91 | – | –
12 | O=C(NCc1cnc(-c2ccc(OCCC[N+]34CCC(CC3)CC4)cc2)s1)c1ccc2c(c1)NC(=O)c1ccccc1S2(=O)=O.[Br-] [compound 11108, 1-(3-(4-(5-((5,5-dioxido-11-oxo-10, 11-dihydrodibenzo [b, f] [1, 4]thiazepine-8-carboxamido)methyl)thiazol-2-yl)phenoxy)propyl) quinuclidin-1-ium bromide] | – | 95 | – | 11.2
13 | O=C(NCc1cnc(-c2ccc(OCCCN3CCOCC3)cc2)s1)c1ccc2c(c1)NC(=O)c1ccccc1S2(=O)=O [compound 1993] | 0.5 | 96 | – | –
14 | COC(=O)c1ccc(-c2ncc(CNC(=O)c3ccc4c(c3)NC(=O)c3ccccc3O4)s2)cc1 [1612-A, methyl 4-(5-((11-oxo-10, 11-dihydrodibenzo [b, f] [1, 4]oxazepine-8-carboxamido)methyl)thiazol-2-yl) benzoate] | 12.4 | 101 | – | –
15 | O=C(NCc1cnc(-c2ccc(O)cc2)s1)c1ccc2c(c1)NC(=O)c1ccccc1S2 [compound 1605] | 0.7 | 96 | – | –
16 | Cc1c(C(=O)NCc2cnc(-c3ccccn3)s2)ccc2c1NC(=O)c1ccccc1S2(=O)=O [compound 11077] | 0.9 | 90 | – | –
17 | O=C(NCc1cnc(-n2ccnn2)s1)c1ccc2c(c1)NC(=O)c1ccccc1S2(=O)=O [compound 11047] | 1.4 | 96 | – | –
18 | O=C(NCc1cnc(-c2ccc3[nH]ncc3c2)s1)c1ccc2c(c1)NC(=O)c1ccccc1O2 [compound 1737] | 7.2 | 112 | – | –

Row | Structure (SMILES) | activity at 10 µM [1, 3] [%] | AD38 Viability Normalized Result (cmpd/DMSO %) at 10 μM [2] [%] | AD38 Viral Load (%) (VL with cmpd/VL in DMSO control) at 10 μM [1, 3] | activity at 10 µM [1] [%]
19 | CCN(CC)CCCSc1ccc(-c2ncc(CNC(=O)c3ccc4c(c3)NC(=O)c3ccccc3S4(=O)=O)s2)cc1 [compound 11063, N-((2-(4-((3-(diethylamino)propyl)thio)phenyl)thiazol-5-yl)methyl)-11-oxo-10, 11-dihydrodibenzo [b, f] [1, 4] thiazepine-8-carboxamide 5,5-dioxide] | 1.2 | 102 | – | –
20 | Cc1c(C(=O)NCc2cnc(-c3ccc(F)cn3)s2)ccc2c1NC(=O)c1ccccc1S2(=O)=O [compound 11150] | 0.4 | 100 | – | –
21 | Cl.O=C(NCc1cnc(-c2ccc(C(=O)N3CCNCC3)cc2)s1)c1ccc2c(c1)NC(=O)c1ccccc1S2(=O)=O [compound 11016, 11-oxo-N-((2-(4-(piperazine-1-carbonyl)phenyl)thiazol-5-yl)methyl)-10, 11-dihydrodibenzo [b, f] [1, 4] thiazepine-8-carboxamide 5,5-dioxide hydrochloride] | 38.8 | 106 | – | –
22 | O=C(NCc1cnc(-c2ccc(OCCCNCC(F)(F)F)cc2)s1)c1ccc2c(c1)NC(=O)c1ccccc1S2(=O)=O [compound 11102] | 0.5 | 93 | – | –
23 | CN(CCCOc1ccc(-c2ncc(CNC(=O)c3ccc4c(c3)NC(=O)c3ccccc3S4(=O)=O)s2)cc1)CC(F)(F)F [compound 1994] | 0.9 | 92 | – | –
24 | CC(C)(C)NCCCCc1ccc(-c2ncc(CNC(=O)c3ccc4c(c3)NC(=O)c3ccccc3S4(=O)=O)s2)cc1 [compound 11054] | 14.1 | 102 | – | –
25 | CN(C)c1ccnc(-c2ncc(CNC(=O)c3ccc4c(c3)NC(=O)c3ccccc3S4(=O)=O)s2)c1 [compound 1889, N-((2-(4-(dimethylamino)pyridin-2-yl)thiazol-5-yl)methyl)-11-oxo-10,11-dihydrodibenzo [b, f] [1, 4] thiazepine-8-carboxamide 5,5-dioxide] | 4.6 | 98 | – | –
26 | COc1ccc(-c2ncc(CNC(=O)c3ccc4c(c3)NC(=O)c3ccccc3S4(=O)=O)s2)cc1 [compound 1596] | 3.8 | 25 | – | –
27 | O=C(NCc1cnc(-c2ccc(NC(=O)C3CC3)cc2)s1)c1ccc2c(c1)NC(=O)c1ccccc1S2(=O)=O [compound 1931] | 8.5 | 97 | – | –
28 | Cn1ccc(-c2ncc(CNC(=O)c3ccc4c(c3)NC(=O)c3ccccc3S4(=O)=O)s2)n1 [compound 11046] | 0.9 | 100 | – | –
29 | CC1c2ccc(C(=O)NCc3cncs3)cc2NC(=O)c2ccccc21 (stereo not shown) [compound 1546] | 2.2 | 97 | – | –
30 | O=C(NCc1cnc(-c2ccc(O)cc2)s1)c1ccc2c(c1)NC(=O)c1ccccc1S2(=O)=O [compound 1595, N-((2-(4-hydroxyphenyl)thiazol-5-yl)methyl)-11-oxo-10, 11-dihydrodibenzo [b, f] [1, 4] thiazepine-8-carboxamide 5,5-dioxide] | 0.3 | 109 | – | –
31 | CNc1ncc(CNC(=O)c2ccc3c(c2)NC(=O)c2ccccc2S3)s1 [compound 1424] | 0.5 | 97 | – | –
32 | CN(C)C1CN(Cc2ccc(-c3ncc(CNC(=O)c4ccc5c(c4)NC(=O)c4ccccc4S5(=O)=O)s3)cc2)C1 [compound 11158] | 6.4 | 100 | – | –
33 | O=C(NCc1cnc(-c2ccc(-c3cc[nH]n3)cc2)s1)c1ccc2c(c1)NC(=O)c1ccccc1S2(=O)=O [compound 1953] | 0.4 | 118 | – | –
34 | CCN(CC)CCCCc1ccc(-c2ncc(CNC(=O)c3ccc4c(c3)NC(=O)c3ccccc3S4(=O)=O)s2)cc1 [compound 11053] | 3.6 | 104 | – | –
35 | NC(=O)c1cccc(-c2ncc(CNC(=O)c3ccc4c(c3)NC(=O)c3ccccc3S4(=O)=O)s2)c1 [1677-B, N-((2-(3-carbamoylphenyl)thiazol-5-yl)methyl)-11-oxo-10, 11-dihydrodibenzo [b, f] [1, 4] thiazepine-8-carboxamide 5,5-dioxide] | 2.4 | 89 | – | –
